According to ChEMBL document CHEMBL1145312, “Structure-activity relationships of triazolopyridine oxazole p38 inhibitors: identification of candidates for clinical development” (Bioorg Med Chem Lett, 2006):

How the values were obtained:
[1] = target: T1, Mitogen-activated protein kinase 12 (Homo sapiens, UniProt P53778); assay: Inhibition of p38-gamma
T1 sequence (P53778 whole entry): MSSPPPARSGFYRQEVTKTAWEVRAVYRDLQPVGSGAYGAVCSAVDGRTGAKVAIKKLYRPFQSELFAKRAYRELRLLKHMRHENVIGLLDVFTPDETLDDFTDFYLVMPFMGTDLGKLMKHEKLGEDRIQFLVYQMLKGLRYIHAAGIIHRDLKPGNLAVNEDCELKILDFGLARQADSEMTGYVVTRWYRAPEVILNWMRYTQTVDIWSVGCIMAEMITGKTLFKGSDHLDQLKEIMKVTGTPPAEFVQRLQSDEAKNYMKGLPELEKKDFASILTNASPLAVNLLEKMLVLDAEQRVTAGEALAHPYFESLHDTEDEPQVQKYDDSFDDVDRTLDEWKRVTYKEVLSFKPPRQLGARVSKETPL

[2] = target: T2, Mitogen-activated protein kinase 13 (Homo sapiens, UniProt O15264); assay: Inhibition of p38delta
T2 sequence (O15264 whole entry): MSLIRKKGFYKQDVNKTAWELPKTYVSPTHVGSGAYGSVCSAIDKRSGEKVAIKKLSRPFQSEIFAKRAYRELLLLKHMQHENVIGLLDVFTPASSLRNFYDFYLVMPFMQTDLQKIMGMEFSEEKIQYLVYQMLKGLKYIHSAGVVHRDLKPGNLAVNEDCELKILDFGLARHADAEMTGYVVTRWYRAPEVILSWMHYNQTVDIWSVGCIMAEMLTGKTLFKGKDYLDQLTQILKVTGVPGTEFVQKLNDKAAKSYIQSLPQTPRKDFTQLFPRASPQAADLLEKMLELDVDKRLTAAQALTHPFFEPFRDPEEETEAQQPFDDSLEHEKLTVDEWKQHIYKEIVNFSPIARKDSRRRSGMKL

[3] = target: Mitogen-activated protein kinase 14 (Homo sapiens, UniProt Q16539); assay: Inhibition of p38alpha
Mitogen-activated protein kinase 14, sequence (Q16539 whole entry): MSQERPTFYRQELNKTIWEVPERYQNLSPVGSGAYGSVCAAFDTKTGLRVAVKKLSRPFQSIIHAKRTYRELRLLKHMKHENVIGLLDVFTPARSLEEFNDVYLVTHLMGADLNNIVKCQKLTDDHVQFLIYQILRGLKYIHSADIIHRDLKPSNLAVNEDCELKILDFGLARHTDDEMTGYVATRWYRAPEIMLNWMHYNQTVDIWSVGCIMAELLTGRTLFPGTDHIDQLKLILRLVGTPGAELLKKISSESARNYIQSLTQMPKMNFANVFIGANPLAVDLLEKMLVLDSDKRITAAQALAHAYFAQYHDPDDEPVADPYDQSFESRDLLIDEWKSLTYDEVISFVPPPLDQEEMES

[4] = species: Homo sapiens; assay: Inhibition of LPS-induced TNFalpha production in human whole blood; type: functional, organism-based
[5] = target: c-Jun N-terminal kinase, JNK (Homo sapiens, UniProt P45983+P53779+P45984); assay: Inhibition of JNK; type: protein assay
[6] = target: Ribosomal protein S6 kinase alpha-1 (Homo sapiens, UniProt Q15418); assay: Inhibition of MAPKAP-K1a
Ribosomal protein S6 kinase alpha-1, sequence (Q15418 whole entry): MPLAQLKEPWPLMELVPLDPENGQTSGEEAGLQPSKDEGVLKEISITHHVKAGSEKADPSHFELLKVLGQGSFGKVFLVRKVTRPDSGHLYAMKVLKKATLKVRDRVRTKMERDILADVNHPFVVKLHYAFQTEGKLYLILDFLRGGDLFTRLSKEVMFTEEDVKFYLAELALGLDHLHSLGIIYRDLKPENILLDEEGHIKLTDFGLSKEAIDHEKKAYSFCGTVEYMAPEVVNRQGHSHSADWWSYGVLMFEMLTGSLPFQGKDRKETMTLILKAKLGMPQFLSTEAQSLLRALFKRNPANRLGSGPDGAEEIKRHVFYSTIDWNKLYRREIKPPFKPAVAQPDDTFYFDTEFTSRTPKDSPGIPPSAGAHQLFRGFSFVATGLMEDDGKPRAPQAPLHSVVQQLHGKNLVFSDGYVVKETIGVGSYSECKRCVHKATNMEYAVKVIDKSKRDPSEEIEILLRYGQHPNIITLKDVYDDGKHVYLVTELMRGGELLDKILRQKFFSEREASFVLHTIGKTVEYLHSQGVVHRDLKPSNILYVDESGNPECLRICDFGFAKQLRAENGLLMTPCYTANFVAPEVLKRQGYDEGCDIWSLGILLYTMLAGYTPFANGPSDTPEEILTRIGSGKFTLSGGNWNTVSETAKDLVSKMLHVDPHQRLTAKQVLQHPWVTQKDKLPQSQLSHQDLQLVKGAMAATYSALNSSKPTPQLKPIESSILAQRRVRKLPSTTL

[7] = target: T3, MAP kinase-activated protein kinase 5 (Homo sapiens, UniProt Q8IW41); assay: Inhibition of PRAK
T3 sequence (Q8IW41 whole entry): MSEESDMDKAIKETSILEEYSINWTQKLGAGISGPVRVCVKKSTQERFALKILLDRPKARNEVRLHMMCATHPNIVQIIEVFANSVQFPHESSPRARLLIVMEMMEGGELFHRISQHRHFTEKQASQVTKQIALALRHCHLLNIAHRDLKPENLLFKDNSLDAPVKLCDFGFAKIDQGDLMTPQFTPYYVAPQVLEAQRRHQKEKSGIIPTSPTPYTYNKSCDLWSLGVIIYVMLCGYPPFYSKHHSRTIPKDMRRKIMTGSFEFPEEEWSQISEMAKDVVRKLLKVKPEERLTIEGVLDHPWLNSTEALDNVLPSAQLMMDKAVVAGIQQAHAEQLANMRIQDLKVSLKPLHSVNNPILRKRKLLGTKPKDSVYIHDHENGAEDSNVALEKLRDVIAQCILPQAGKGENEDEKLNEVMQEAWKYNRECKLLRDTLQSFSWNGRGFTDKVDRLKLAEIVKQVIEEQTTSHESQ

[8] = target: Protein kinase C alpha type (Homo sapiens, UniProt P17252); assay: Inhibition of PKCalpha
[9] = target: T4, Serine/threonine-protein kinase Sgk1 (Homo sapiens, UniProt O00141); assay: Inhibition of SGK
T4 sequence (O00141 whole entry): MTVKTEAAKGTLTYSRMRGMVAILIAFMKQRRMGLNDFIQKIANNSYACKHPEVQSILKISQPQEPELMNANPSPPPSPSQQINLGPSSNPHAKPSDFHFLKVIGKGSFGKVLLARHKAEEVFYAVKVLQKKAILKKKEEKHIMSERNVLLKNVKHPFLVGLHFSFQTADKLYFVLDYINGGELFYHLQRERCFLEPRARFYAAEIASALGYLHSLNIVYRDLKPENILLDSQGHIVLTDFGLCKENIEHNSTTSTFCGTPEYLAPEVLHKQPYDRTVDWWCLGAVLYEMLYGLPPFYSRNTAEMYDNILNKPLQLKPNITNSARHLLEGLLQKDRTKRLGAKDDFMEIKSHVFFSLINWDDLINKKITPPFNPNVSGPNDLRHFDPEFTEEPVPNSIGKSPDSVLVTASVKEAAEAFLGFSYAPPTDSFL

[10] = target: Glycogen synthase kinase-3 beta (Homo sapiens, UniProt P49841); assay: Inhibition of GSK3-beta
Glycogen synthase kinase-3 beta, sequence (P49841 whole entry): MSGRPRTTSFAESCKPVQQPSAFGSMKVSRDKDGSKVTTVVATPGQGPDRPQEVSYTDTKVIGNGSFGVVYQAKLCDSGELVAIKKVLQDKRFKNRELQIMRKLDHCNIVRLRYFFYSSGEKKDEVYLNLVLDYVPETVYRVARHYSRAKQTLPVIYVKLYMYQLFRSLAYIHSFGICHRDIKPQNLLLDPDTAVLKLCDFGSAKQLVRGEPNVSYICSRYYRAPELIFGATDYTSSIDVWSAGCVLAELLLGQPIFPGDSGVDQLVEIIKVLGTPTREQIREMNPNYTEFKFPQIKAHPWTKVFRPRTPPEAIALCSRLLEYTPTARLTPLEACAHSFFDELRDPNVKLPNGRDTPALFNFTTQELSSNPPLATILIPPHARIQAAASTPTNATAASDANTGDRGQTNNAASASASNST

[11] = target: Rho-associated protein kinase 2 (Homo sapiens, UniProt O75116); assay: Inhibition of ROCK2
Rho-associated protein kinase 2, sequence (O75116 whole entry): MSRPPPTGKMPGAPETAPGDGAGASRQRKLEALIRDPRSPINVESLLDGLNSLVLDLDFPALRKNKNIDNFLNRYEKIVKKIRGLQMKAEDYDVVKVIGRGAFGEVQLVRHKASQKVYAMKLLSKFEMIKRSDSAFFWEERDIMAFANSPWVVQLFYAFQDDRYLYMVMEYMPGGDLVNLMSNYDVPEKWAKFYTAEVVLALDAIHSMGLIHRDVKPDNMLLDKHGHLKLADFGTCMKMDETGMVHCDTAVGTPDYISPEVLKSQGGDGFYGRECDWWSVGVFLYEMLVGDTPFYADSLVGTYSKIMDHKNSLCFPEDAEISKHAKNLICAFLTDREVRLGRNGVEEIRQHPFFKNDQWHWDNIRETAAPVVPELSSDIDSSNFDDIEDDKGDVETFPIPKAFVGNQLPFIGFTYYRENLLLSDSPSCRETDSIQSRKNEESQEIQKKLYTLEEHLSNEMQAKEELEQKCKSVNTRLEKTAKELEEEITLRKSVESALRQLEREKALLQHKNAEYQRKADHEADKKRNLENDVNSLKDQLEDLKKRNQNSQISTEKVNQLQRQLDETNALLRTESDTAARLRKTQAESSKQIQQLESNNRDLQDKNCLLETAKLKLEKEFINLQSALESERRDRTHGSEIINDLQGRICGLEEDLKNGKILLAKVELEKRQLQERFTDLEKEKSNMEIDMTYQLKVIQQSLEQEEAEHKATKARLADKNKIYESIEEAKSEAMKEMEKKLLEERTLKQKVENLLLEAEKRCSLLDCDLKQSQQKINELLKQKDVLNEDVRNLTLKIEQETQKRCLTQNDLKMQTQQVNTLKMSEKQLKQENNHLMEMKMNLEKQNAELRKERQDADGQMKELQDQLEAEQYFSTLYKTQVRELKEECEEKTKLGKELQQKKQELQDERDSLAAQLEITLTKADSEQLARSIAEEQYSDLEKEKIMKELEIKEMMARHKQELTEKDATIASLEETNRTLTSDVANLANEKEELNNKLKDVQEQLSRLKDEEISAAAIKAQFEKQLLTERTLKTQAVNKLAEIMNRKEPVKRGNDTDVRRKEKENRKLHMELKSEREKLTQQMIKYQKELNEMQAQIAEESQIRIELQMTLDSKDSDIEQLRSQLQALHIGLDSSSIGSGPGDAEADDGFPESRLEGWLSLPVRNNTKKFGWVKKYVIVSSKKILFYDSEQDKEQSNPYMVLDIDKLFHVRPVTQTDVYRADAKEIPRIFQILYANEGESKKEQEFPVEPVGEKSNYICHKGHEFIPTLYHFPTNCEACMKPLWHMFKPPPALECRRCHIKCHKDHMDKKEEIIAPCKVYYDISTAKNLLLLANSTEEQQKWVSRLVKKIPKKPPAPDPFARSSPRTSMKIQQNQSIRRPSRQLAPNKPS

[12] = target: AMP-activated protein kinase, AMPK; assay: Inhibition of AMPK; type: protein-complex assay
[13] = target: T5, Serine/threonine-protein kinase Chk1 (Homo sapiens, UniProt O14757); assay: Inhibition of CHK1
T5 sequence (O14757 whole entry): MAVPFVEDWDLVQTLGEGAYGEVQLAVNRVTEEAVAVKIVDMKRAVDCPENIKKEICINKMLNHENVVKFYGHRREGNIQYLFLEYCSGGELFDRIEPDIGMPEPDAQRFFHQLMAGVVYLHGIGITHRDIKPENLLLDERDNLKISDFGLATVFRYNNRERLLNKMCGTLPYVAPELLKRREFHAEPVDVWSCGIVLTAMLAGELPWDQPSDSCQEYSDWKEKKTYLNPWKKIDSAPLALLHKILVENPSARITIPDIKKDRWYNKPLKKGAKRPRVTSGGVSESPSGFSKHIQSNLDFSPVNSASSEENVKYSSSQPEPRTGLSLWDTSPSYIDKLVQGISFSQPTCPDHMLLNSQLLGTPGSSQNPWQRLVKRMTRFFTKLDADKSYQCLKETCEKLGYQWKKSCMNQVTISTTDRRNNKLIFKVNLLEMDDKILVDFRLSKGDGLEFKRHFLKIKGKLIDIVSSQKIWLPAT

[14] = target: Cyclin-dependent kinase 2 (Homo sapiens, UniProt P24941); assay: Inhibition of CDK2
[15] = target: Mitogen-activated protein kinase 1 (Homo sapiens, UniProt P28482); assay: Inhibition of ERK2
Mitogen-activated protein kinase 1, sequence (P28482 whole entry): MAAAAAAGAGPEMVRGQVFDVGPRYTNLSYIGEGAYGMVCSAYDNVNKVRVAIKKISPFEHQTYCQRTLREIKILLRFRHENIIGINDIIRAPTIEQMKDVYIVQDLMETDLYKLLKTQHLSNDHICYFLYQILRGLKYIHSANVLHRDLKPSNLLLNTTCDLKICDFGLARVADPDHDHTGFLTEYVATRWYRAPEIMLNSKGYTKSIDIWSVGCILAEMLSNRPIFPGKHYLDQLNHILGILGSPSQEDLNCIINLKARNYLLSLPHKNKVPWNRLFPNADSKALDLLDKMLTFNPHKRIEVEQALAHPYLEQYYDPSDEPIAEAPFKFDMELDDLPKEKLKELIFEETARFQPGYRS

[16] = target: Tyrosine-protein kinase Lck (Homo sapiens, UniProt P06239); assay: Inhibition of Lck
Tyrosine-protein kinase Lck, sequence (P06239 whole entry): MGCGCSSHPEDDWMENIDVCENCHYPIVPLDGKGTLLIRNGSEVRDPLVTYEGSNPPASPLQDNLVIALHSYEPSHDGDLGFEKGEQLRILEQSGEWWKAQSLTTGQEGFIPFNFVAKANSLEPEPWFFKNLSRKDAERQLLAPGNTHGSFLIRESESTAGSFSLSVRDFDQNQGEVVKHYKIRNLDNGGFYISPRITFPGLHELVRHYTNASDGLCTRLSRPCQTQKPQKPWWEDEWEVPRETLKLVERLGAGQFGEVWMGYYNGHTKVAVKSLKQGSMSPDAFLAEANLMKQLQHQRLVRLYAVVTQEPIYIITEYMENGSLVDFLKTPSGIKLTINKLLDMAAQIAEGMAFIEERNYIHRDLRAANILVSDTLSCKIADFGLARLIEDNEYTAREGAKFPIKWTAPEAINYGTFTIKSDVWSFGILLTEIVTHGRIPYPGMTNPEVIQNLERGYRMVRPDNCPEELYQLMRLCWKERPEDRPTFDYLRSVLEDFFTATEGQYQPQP

Structure (SMILES)	IC50 [1]	IC50 [2]	IC50 [3]	IC50 [4]	IC50 [5]	IC50 [6]	IC50 [7]	IC50 [8]	IC50 [9]	IC50 [10]	IC50 [11]	IC50 [12]	IC50 [13]	IC50 [14]	IC50 [15]	IC50 [16]
CC(C)c1nnc2ccc(-c3ocnc3-c3ccccc3)cn12	> 10 µM	> 10 µM	0.0096 µM	0.973 µM	> 10 µM	> 10 µM	> 10 µM	> 10 µM	> 10 µM	> 10 µM	> 10 µM	> 10 µM	> 10 µM	> 10 µM	> 10 µM	
CC(C)(C)c1nnc2ccc(-c3ocnc3-c3cc(F)c(F)cc3F)cn12	> 10 µM	> 10 µM	0.0018 µM	0.063 µM	> 10 µM	> 10 µM	> 10 µM	> 10 µM	> 10 µM	> 10 µM	> 10 µM	> 10 µM	> 10 µM	> 10 µM	> 10 µM	
CCNc1nnc2ccc(-c3ocnc3-c3ccc(F)cc3)cn12	> 10 µM	> 10 µM	0.0076 µM	0.865 µM	> 10 µM	> 10 µM	> 10 µM	> 10 µM	> 10 µM	> 10 µM	> 10 µM	> 10 µM	> 10 µM	> 10 µM	> 10 µM	> 10 µM
CC(C)c1nnc2ccc(-c3c[nH]nc3-c3cc(F)ccc3F)cn12	> 10 µM	> 10 µM	0.0028 µM	0.18 µM	> 10 µM	> 10 µM	> 10 µM	> 10 µM	> 10 µM	> 10 µM	> 10 µM	> 10 µM	> 10 µM	> 10 µM	> 10 µM	> 10 µM
CC(C)(C)c1nnc2ccc(-c3ocnc3-c3ccc(F)cc3F)cn12	> 10 µM	> 10 µM	0.0011 µM	0.076 µM	> 10 µM	> 10 µM	> 10 µM	> 10 µM	> 10 µM	> 10 µM	> 10 µM	> 10 µM	> 10 µM	> 10 µM	> 10 µM	> 10 µM
